This note sets out measurements from patent US8143282B2, “Heterocyclic compounds” (S*BIO Pte Ltd., priority 2005, dated 2012).

Structures are written as SMILES.

For one assay, the system named is Colo205 cells. The assay is described as follows: Cell-based proliferation assay for GI50 (CyQUANT), Colo205. The note with it: Homo sapiens, COLO 205, 96 h treatment, read-out: Cellular or Growth Inhibition Activity in Colo205 cells, GI50. How it is done:
Human colon cancer cell lines (Colo205, HCT116), Ovarian cancer cell line (A2780), Hepatoma cell line (HEP3B), Prostate cancer cell line (PC3) were obtained from ATCC or ECACC. Colo205 cells were cultivated in RPMI 1640 containing 2 mM L-Glutamine, 5% FBS, 1.0 mM Na Pyruvate, 1 U/ml of penicillin and 1 μg of streptomycin. HCT116 cells were cultivated in McCoy's containing RPMI 1640 containing 2 mM L-Glutamine, 5% FBS, 1 U/ml of penicillin and 1 μg of streptomycin. A2780 cells were cultivated in RPMI 1640 containing 2 mM L-Glutamine, 5% FBS, 1 U/ml of penicillin and 1 μg of streptomycin. HEP3B cells were cultivated in EMEM containing 2 mM L-glutamine, 5% FBS, 1% non essential amino acid, 1 mM Na Pyruvate, 1 U/ml of penicillin and 1 μg of streptomycin. PC3 cells were cultivated in F12K, 2 mM L-glutamine, 5% FBS, 1 U/ml of penicillin and 1 μg of streptomycin. PC3, Colo205, and HCT116 cells were seeded in 96-wells plate at 1000, 5000 and 6000 cells per well respectively. A2780 and HEP3B cells were seeded in 96-wells plate at 4000 cells per well respectively. The plates were incubated at 37° C., 5% CO2, for 24 h. Cells were treated with compounds at various concentrations for 96 h. Cell growth was then monitored using CyQUANT® cell proliferation assay (Invitrogen Pte Ltd). Dose response curves were plotted to determine GI50 values for the compounds using XL-fit (ID Business Solution, Emeryville, Calif.). GI50 is defined as the concentration of compound required for 50% inhibition of cell growth.

For the next assay, the target named is T1, HDAC1 enzyme (Homo sapiens, UniProt Q13547).
T1 construct: Amplification of human HDAC1 coding region from this cDNA library was cloned separately into the baculovirus expression pDEST20 vector; made in house; host or cells: SF9 insect cells, pDEST20-HDAC1 baculovirus
T1 sequence (Q13547 whole entry): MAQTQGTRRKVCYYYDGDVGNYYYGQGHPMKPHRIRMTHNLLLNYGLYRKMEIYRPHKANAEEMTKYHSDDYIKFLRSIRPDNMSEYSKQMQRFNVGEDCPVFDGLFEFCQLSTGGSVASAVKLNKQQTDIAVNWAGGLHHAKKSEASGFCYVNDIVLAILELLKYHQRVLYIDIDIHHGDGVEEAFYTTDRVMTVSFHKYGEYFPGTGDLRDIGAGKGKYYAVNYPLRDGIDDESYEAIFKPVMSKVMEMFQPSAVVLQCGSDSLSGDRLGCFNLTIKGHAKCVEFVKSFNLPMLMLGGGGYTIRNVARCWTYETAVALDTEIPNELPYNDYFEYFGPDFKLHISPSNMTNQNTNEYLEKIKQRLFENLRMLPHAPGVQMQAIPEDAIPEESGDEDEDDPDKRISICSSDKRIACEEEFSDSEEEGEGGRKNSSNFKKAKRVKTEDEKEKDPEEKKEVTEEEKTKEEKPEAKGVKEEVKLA
The assay is described as follows: In vitro HDAC assay for determination of IC50 values (BIOMOL fluorescent-based HDAC activity assay). Format: biochemical. How it is done:
Human cDNA library was prepared using cultured SW620 cells. Amplification of human HDAC1 coding region from this cDNA library was cloned separately into the baculovirus expression pDEST20 vector (GATEWAY Cloning Technology, Invitrogen Pte Ltd). The pDEST20-HDAC1 construct was confirmed by DNA sequencing. Recombinant baculovirus was prepared using the Bac-To-Bac method following the manufacturer's instruction (Invitrogen Pte Ltd).
Expression of GST-HDAC1 was done by infecting SF9 cells (Invitrogen Pte Ltd) with pDEST20-HDAC1 baculovirus at MOI=1 for 48 h. Soluble cell lysate was incubated with pre-equilibrated Glutathione Sepharose 4B beads (Amersham) at 4° C. for 2 h. The beads were washed with PBS buffer for 3 times. The GST-HDAC1 protein was eluted by elution buffer containing 50 mM Tris, pH8.0, 150 mM NaCl, 1% Triton X-100 and 10 mM or 20 mM reduced Glutathione. The purified GST-HDAC1 protein was dialyzed with HDAC storage buffer containing 10 mM Tris, pH7.5, 100 mM NaCl and 3 mM MgCl2. 20% Glycerol was added to purified GST-HDAC1 protein before storage at −80° C.
The assay has been carried out in 96 well format and the BIOMOL fluorescent-based HDAC activity assay has been applied. […] Flur de lys Developer was added and the reaction was incubated for 10 min. Briefly, deacetylation of the substrate sensitizes it to the developer, which then generates a fluorophore. The fluorophore is excited with 360 nm light and the emitted light (460 nm) is detected on a fluorometric plate reader (Tecan Ultra Microplate detection system, Tecan Group Ltd.).
The analytical software, Prism 4.0 (GraphPad Software Inc) has been used to generate IC50 from a series of data.

For `CC(Cc1nc2cc(/C=C/C(=O)NO)ccc2n1CCN(C(C)C)C(C)C)CC(C)(C)C` (centres unmarked) [Compound 38, 3-[1-(2-Diisopropylamino-ethyl)-2-(2,4,4-trimethyl-pentyl)-1H-benzoimidazol-5-yl]-N-hydroxy-acrylamide], the 50% growth inhibitory concentration (GI50) in the assay with Colo205 cells turned out to be 1940 nM. 560 nM corresponded to half-maximal inhibition against HDAC1 enzyme (IC50).

For the molecule `CC(Cc1nc2cc(/C=C/C(=O)NO)ccc2n1CCNC(C)C)CC(C)(C)C` (centres unmarked) [Compound 39, N-Hydroxy-3-[1-(2-isopropylamino-ethyl)-2-(2,4,4-trimethyl-pentyl)-1H-benzoimidazol-5-yl]-acrylamide], the 50% growth inhibitory concentration (GI50) in the assay on Colo205 cells came out at 230 nM. Half-maximal inhibition at HDAC1 enzyme (IC50) required 24 nM.

For `CCN(CC)CCn1c(CC(C)CC(C)(C)C)nc2cc(/C=C/C(=O)NO)ccc21` (centres unmarked) [Compound 41, 3-[1-(2-Diethylamino-ethyl)-2-(2,4,4-trimethyl-pentyl)-1H-benzoimidazol-5-yl]-N-hydroxy-acrylamide], in the assay on Colo205 cells, the GI50 was determined as 920 nM. Besides, half-maximal inhibition on HDAC1 enzyme (IC50) was put at 62 nM.

In the case of `CCCc1nc2cc(/C=C/C(=O)NO)ccc2n1CCN(CC)CC` [Compound 42, 3-[1-(2-Diethylamino-ethyl)-2-propyl-1H-benzoimidazol-5-yl]-N-hydroxy-acrylamide], the GI50 in the assay on Colo205 cells was determined as 980 nM. For the same molecule, inhibition on HDAC1 enzyme was half-maximal at 150 nM (IC50).

`CCCCc1nc2cc(/C=C/C(=O)NO)ccc2n1CCN(C(C)C)C(C)C` [Compound 43, 3-[2-Butyl-1-(2-diisopropylamimo-ethyl)-1H-benzoimidazol-5-yl]-N-hydroxy-acrylamide]: the GI50 in the assay with Colo205 cells amounted to 1860 nM. At HDAC1 enzyme, this molecule came in with a concentration for half-maximal inhibition (IC50) of 330 nM.

As to `CCN(CC)CCn1c(CCSC)nc2cc(/C=C/C(=O)NO)ccc21` [Compound 45, 3-[1-(2-Diethylamino-ethyl)-2-(2-methylsulfanyl-ethyl)-1H-benzoimidazol-5-yl]-N-hydroxy-acrylamide], in the assay with Colo205 cells, the 50% growth inhibitory concentration (GI50) was 540 nM. The same molecule gave a half-maximal inhibitory concentration (IC50) at HDAC1 enzyme of 53 nM.

As to `CCCCc1nc2cc(/C=C/C(=O)NO)ccc2n1CCCNC(C)C` [Compound 47, 3-[2-Butyl-1-(3-isopropylamino-propyl)-1H-benzoimidazol-5-yl]-N-hydroxy-acrylamide], the 50% growth inhibitory concentration (GI50) in the assay with Colo205 cells was 3600 nM. Half-maximal inhibition on HDAC1 enzyme (IC50) was put at 210 nM.

On to `CCCCc1nc2cc(/C=C/C(=O)NO)ccc2n1C1CCN(Cc2ccccc2)CC1` [Compound 48, 3-[1-(1-Benzyl-piperidin-4-yl)-2-butyl-1H-benzoimidazol-5-yl]-N-hydroxy-acrylamide], for which the GI50 in the assay with Colo205 cells is 780 nM. Further, the midpoint of inhibition on HDAC1 enzyme, the IC50, lay at 430 nM.

On to `C=CCCc1nc2cc(/C=C/C(=O)NO)ccc2n1CCNCC` [Compound 49, 3-[2-But-3-enyl-1-(2-ethylamino-ethyl)-1H-benzoimidazol-5-yl]-N-hydroxy-acrylamide], for which the concentration for 50% growth inhibition (GI50) in the assay on Colo205 cells came out at 1750 nM. Also, on HDAC1 enzyme, the midpoint of inhibition, the IC50, lay at 110 nM.

Consider `CC(Cc1nc2cc(/C=C/C(=O)NO)ccc2n1CCN(C)C)CC(C)(C)C` (centres unmarked) [Compound 51, 3-[1-(2-Dimethylamino-ethyl)-2-(2,4,4-trimethyl-pentyl)-1H-benzoimidazol-5-yl]-N-hydroxy-acrylamide], for which the 50% growth inhibitory concentration (GI50) in the assay on Colo205 cells was determined as 260 nM. In addition, the 50% inhibitory concentration (IC50) at HDAC1 enzyme was 66 nM.

As for `CC(C)NCCn1c(CCC(F)(F)F)nc2cc(/C=C/C(=O)NO)ccc21` [Compound 53, N-Hydroxy-3-[1-(2-isopropylamino-ethyl)-2-(3,3,3-trifluoro-propyl)-1H-benzoimidazol-5-yl]-acrylamide], the GI50 in the assay on Colo205 cells is 1050 nM. Half-maximal inhibition against HDAC1 enzyme (IC50) required 100 nM.

`CC/C=C\CCc1nc2cc(/C=C/C(=O)NO)ccc2n1CCN(C)C` [Compound 54, 3-[1-(2-Dimethylamino-ethyl)-2-hex-3-enyl-1H-benzoimidazol-5-yl]-N-hydroxy-acrylamide]: in the assay on Colo205 cells, the GI50 came to 460 nM. The same molecule displayed a half-maximal inhibitory concentration (IC50) on HDAC1 enzyme of 48 nM.

For `CC(Cc1nc2cc(/C=C/C(=O)NO)ccc2n1CCN)CC(C)(C)C` (centres unmarked) [Compound 55, 3-[1-(2-Amino-ethyl)-2-(2,4,4-trimethyl-pentyl)-1H-benzoimidazol-5-yl]-N-hydroxy-acrylamide], in the assay with Colo205 cells, the 50% growth inhibitory concentration (GI50) was 910 nM. For the same molecule, the IC50 at HDAC1 enzyme was 37 nM.

As for `CCCCCCCC(Cc1nc2cc(/C=C/C(=O)NO)ccc2n1CCN)OC` (centres unmarked) [Compound 56, 3-[1-(2-Amino-ethyl)-2-(2-methoxy-nonyl)-1H-benzoimidazol-5-yl]-N-hydroxy-acrylamide], in the assay on Colo205 cells, the 50% growth inhibitory concentration (GI50) was 900 nM. Also, the half-maximal inhibitory concentration (IC50) on HDAC1 enzyme worked out at 29 nM.

In the case of `CCN(CC)CCn1c(CCNC(=O)CC(C)(C)C)nc2cc(/C=C/C(=O)NO)ccc21` [Compound 59, N-{2-[1-(2-Diethylamino-ethyl)-5-(2-hydroxycarbamoyl-vinyl)-1H-benzoimidazol-2-yl]-ethyl}-3,3-dimethyl-butyramide], the GI50 in the assay with Colo205 cells came out at 2280 nM. Moreover, at HDAC1 enzyme, 77 nM corresponded to half-maximal inhibition (IC50).

As for `CCN(CC)CCn1c(CCNC(=O)C(C)(C)C)nc2cc(/C=C/C(=O)NO)ccc21` [Compound 60, 3-{1-(2-Diethylamino-ethyl)-2-[2-(2,2-dimethyl-propionylamino)-ethyl]-1H-benzoimidazol-5-yl}-N-hydroxy-acrylamide], in the assay with Colo205 cells, the 50% growth inhibitory concentration (GI50) came out at 2480 nM. The molecule further showed an IC50 at HDAC1 enzyme of 100 nM.

As to `CCN(CC)CCn1c(CNC(=O)C(C)(C)C)nc2cc(/C=C/C(=O)NO)ccc21` [Compound 61, 3-{1-(2-Diethylamino-ethyl)-2-[(2,2-dimethyl-propionylamino)-methyl]-1H-benzoimidazol-5-yl}-N-hydroxy-acrylamide], the GI50 with Colo205 cells is 1320 nM. This molecule yielded an IC50 against HDAC1 enzyme of 70 nM.

For `CCCC(=O)NCc1nc2cc(/C=C/C(=O)NO)ccc2n1CCN(CC)CC` [Compound 62, N-[1-(2-Diethylamino-ethyl)-5-(2-hydroxycarbamoyl-vinyl)-1H-benzoimidazol-2-ylmethyl]-butyramide], the 50% growth inhibitory concentration (GI50) in the assay on Colo205 cells turned out to be 2600 nM. The molecule also gave an IC50 at HDAC1 enzyme of 54 nM.

On to `CN(C)CCn1c(CCC(C)(C)C)nc2cc(/C=C/C(=O)NO)ccc21` [Compound 64, 3-[2-(3,3-Dimethyl-butyl)-1-(2-Dimethylamino-ethyl)-1H-benzoimidazol-5-yl]-N-hydroxy-acrylamide], for which the GI50 in the assay on Colo205 cells amounted to 730 nM. The 50% inhibitory concentration (IC50) at HDAC1 enzyme was 100 nM.

With `CN(C)CCn1c(CC(F)(F)F)nc2cc(/C=C/C(=O)NO)ccc21` [Compound 66, 3-[1-(2-Dimethylamino-ethyl)-2-(2,2,2-trifluoro-ethyl)-1H-benzoimidazol-5-yl]-N-hydroxy-acrylamide], the GI50 with Colo205 cells turned out to be 8800 nM. This molecule came in with an IC50 against HDAC1 enzyme of 340 nM.

Turning to `CCCCc1nc2cc(/C=C/C(=O)NO)ccc2n1C1CCNCC1` [Compound 70, 3-(2-Butyl-1-piperidin-4-yl-1H-benzoimidazol-5-yl)-N-hydroxy-acrylamide], the GI50 in the assay on Colo205 cells came out at 7000 nM. Half-maximal inhibition on HDAC1 enzyme (IC50) required 68 nM.

As for `CCCCC/C=C\CCc1nc2cc(/C=C/C(=O)NO)ccc2n1CCNC` [Compound 72, N-Hydroxy-3-[1-(2-methylamino-ethyl)-2-non-3-enyl-1H-benzoimidazol-5-yl]-acrylamide], the GI50 with Colo205 cells worked out at 160 nM. The molecule also returned a 50% inhibitory concentration (IC50) on HDAC1 enzyme of 17 nM.

Turning to `CC/C=C\CCCCCc1nc2cc(/C=C/C(=O)NO)ccc2n1CCNC` [Compound 73, N-Hydroxy-3-[1-(2-methylamino-ethyl)-2-non-6-enyl-1H-benzoimidazol-5-yl]-acrylamide], the 50% growth inhibitory concentration (GI50) in the assay on Colo205 cells was 230 nM. The same molecule gave an IC50 at HDAC1 enzyme of 26 nM.

As for `CCCCCc1nc2cc(/C=C/C(=O)NO)ccc2n1CCNC` [Compound 75, N-Hydroxy-3-[1-(2-methylamino-ethyl)-2-pentyl-1H-benzoimidazol-5-yl]-acrylamide], the GI50 in the assay on Colo205 cells is 1200 nM. The molecule further had a concentration for half-maximal inhibition (IC50) on HDAC1 enzyme of 50 nM.

On to `CCCCCCCCc1nc2cc(/C=C/C(=O)NO)ccc2n1CCNC` [Compound 76, N-Hydroxy-3-[1-(2-methylamino-ethyl)-2-octyl-1H-benzoimidazol-5-yl]-acrylamide], for which the GI50 in the assay on Colo205 cells came to 290 nM. On HDAC1 enzyme, this molecule yielded a 50% inhibitory concentration (IC50) of 18 nM.
